Test results taken from ChEMBL document CHEMBL6127020, “Discovery of aminopiperidine based potent & novel topoisomerase inhibitor with broad spectrum anti-bacterial activity” (Bioorg Med Chem Lett, 2024).
pIC50: −log10 of the molar value. Converted amounts (≈) assume the structure as drawn.

Assays:
Staphylococcus aureus [1] = assay: Antibacterial activity against Staphylococcus aureus ATCC 29213 assessed as inhibition of bacterial growth; format: functional
Cytochrome P450 1A2 = target: T1, Cytochrome P450 1A2 (Homo sapiens, UniProt P05177); assay: Inhibition of CYP1A2 (unknown origin) at 10 uM; format: ADME
T1 sequence (P05177 whole entry): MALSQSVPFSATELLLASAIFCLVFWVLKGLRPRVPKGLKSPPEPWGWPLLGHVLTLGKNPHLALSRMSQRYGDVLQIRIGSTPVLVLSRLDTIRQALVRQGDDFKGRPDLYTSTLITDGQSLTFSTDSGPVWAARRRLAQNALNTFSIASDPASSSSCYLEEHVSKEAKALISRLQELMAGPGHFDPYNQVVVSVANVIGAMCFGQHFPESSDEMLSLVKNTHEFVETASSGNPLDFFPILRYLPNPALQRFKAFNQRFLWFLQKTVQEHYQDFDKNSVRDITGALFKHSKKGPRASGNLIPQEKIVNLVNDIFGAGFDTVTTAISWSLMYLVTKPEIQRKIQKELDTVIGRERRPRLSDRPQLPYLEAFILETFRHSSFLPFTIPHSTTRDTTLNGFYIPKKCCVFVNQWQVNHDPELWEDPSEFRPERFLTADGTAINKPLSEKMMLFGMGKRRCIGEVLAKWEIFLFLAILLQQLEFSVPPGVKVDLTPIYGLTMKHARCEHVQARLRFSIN

Topoisomerase IV = Topoisomerase IV (Staphylococcus aureus, UniProt P0C1S7+P0C1U9); assay: Inhibition of Staphylococcus aureus DNA topoisomerase 4; format: protein-complex assay
Topoisomerase IV, sequence (P0C1U9 whole entry): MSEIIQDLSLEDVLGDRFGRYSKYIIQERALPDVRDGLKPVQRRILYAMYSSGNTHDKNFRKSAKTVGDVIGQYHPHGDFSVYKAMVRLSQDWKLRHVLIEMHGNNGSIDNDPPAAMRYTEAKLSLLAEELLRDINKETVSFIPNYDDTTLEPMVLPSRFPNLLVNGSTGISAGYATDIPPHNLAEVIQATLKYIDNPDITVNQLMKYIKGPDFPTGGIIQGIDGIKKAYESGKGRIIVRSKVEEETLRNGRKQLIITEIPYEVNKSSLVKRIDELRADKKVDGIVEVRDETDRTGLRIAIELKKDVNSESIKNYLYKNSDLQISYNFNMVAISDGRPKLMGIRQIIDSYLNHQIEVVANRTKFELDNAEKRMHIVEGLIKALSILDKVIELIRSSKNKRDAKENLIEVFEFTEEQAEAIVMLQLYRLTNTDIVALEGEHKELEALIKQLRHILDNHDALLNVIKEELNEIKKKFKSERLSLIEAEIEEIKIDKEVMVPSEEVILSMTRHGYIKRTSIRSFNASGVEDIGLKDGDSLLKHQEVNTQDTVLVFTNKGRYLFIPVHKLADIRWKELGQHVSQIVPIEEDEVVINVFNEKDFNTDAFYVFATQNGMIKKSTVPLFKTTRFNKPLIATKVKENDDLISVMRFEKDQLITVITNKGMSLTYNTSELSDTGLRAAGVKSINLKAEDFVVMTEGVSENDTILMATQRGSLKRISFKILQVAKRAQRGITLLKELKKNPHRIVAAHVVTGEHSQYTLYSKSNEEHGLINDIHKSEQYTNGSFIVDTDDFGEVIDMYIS
Topoisomerase IV, sequence (P0C1S7 whole entry): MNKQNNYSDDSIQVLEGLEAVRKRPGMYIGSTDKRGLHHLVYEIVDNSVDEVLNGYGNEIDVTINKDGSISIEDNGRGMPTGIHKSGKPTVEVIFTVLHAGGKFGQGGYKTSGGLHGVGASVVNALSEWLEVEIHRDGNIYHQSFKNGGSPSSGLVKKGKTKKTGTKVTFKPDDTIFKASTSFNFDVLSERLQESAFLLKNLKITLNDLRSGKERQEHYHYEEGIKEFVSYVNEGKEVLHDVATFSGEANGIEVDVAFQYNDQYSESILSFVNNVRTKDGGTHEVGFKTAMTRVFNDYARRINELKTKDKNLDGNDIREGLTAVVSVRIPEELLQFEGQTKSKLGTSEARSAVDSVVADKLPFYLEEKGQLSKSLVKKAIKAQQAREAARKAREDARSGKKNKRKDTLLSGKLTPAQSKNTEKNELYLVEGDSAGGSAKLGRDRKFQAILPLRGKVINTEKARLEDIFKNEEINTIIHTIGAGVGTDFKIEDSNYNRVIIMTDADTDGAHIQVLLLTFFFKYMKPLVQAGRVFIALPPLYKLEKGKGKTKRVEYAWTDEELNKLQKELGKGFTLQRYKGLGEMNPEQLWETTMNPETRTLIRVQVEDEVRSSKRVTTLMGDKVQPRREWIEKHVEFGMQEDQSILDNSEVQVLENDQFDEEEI

Cytochrome P450 3A4 = Cytochrome P450 3A4 (Homo sapiens, UniProt P08684); assay: Inhibition of CYP3A4 (unknown origin) at 10 uM; format: ADME
Cytochrome P450 3A4, sequence (P08684 whole entry): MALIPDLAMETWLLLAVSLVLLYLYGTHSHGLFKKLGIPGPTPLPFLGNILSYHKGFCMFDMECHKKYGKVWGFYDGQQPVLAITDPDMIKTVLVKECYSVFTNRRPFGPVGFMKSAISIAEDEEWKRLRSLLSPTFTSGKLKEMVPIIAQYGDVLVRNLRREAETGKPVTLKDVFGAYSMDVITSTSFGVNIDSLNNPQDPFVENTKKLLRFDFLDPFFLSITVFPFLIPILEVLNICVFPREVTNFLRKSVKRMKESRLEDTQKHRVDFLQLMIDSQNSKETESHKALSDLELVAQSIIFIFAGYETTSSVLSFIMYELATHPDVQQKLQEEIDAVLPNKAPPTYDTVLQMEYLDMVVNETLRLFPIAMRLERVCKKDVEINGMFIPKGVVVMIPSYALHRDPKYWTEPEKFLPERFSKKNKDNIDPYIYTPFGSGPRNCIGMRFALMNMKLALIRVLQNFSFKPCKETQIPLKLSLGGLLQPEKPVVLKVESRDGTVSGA

Cytochrome P450 2D6 = Cytochrome P450 2D6 (Homo sapiens, UniProt P10635); assay: Inhibition of CYP2D6 (unknown origin) at 10 uM; format: ADME
Cytochrome P450 2D6, sequence (P10635 whole entry): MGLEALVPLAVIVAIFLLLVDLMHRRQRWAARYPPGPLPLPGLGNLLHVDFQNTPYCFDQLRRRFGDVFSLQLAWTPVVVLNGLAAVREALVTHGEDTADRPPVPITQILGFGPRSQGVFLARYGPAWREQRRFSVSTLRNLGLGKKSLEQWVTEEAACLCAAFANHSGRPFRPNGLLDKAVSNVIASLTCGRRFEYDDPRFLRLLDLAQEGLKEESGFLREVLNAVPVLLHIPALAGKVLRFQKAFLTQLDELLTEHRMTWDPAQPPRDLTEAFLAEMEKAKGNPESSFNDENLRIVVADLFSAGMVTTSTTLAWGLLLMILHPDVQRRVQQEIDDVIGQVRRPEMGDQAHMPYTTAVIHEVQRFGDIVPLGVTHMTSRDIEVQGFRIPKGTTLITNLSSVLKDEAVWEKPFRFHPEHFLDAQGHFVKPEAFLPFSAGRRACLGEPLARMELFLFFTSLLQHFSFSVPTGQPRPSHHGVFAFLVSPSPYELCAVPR

DNA gyrase = DNA gyrase (Staphylococcus aureus, UniProt P0A0K8+P20831); assay: Inhibition of Staphylococcus aureus DNA gyrase; format: protein-complex assay
DNA gyrase, sequence (P0A0K8 whole entry): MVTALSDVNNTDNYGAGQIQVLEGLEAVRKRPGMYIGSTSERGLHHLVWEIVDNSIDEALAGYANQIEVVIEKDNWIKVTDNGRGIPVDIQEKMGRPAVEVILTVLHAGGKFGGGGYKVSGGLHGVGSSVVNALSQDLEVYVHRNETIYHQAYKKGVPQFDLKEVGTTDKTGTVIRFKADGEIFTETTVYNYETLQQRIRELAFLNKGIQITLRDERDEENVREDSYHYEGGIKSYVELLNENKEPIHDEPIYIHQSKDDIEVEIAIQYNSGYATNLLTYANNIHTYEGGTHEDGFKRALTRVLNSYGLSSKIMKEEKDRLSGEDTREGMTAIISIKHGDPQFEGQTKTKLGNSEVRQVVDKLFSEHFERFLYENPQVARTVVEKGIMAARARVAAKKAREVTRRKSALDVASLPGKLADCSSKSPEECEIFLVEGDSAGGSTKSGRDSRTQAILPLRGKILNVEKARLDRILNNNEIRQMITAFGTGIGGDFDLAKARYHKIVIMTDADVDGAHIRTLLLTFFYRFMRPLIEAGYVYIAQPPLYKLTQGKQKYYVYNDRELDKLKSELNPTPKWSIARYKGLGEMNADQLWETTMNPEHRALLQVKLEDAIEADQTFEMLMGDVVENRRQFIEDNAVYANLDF
DNA gyrase, sequence (P20831 whole entry): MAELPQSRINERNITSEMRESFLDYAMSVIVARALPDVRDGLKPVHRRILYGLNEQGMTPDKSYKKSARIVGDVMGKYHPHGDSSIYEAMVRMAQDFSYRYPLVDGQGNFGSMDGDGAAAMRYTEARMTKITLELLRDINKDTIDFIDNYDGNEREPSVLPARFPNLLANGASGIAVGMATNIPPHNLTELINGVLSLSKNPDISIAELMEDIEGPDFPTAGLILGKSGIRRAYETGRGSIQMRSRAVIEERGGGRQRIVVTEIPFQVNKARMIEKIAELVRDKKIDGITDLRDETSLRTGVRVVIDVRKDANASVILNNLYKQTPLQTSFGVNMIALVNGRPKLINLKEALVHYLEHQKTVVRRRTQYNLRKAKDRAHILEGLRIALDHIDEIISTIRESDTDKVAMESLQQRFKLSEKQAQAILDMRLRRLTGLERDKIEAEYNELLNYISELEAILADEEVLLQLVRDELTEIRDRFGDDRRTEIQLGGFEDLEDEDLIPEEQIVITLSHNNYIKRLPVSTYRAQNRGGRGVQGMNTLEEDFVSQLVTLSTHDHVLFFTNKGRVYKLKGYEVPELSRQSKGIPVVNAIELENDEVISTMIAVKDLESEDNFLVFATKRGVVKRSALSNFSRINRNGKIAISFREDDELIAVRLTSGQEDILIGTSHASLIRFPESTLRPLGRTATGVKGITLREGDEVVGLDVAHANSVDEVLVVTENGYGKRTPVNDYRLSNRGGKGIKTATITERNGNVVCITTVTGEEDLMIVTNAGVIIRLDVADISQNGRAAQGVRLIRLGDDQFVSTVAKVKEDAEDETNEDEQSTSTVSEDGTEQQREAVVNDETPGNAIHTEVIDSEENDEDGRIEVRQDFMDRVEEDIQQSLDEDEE

Cytochrome P450 2C19 = Cytochrome P450 2C19 (Homo sapiens, UniProt P33261); assay: Inhibition of CYP2C19 (unknown origin) at 10 uM; format: ADME
Cytochrome P450 2C19, sequence (P33261 whole entry): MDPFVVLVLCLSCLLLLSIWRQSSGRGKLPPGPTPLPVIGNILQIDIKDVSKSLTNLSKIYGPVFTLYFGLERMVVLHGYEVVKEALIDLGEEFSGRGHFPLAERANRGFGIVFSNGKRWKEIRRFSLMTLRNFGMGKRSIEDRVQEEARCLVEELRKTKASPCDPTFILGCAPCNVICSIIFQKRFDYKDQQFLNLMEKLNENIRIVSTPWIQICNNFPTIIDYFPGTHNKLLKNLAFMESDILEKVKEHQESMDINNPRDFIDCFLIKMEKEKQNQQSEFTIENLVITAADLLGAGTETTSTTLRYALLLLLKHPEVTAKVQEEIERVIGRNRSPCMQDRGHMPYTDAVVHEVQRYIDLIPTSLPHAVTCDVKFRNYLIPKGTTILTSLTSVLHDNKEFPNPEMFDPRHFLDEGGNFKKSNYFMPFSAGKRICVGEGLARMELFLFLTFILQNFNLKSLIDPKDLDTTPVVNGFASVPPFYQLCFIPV

Cytochrome P450 2C8 = target: T2, Cytochrome P450 2C8 (Homo sapiens, UniProt P10632); assay: Inhibition of CYP2C8 (unknown origin) at 10 uM; format: ADME
T2 sequence (P10632 whole entry): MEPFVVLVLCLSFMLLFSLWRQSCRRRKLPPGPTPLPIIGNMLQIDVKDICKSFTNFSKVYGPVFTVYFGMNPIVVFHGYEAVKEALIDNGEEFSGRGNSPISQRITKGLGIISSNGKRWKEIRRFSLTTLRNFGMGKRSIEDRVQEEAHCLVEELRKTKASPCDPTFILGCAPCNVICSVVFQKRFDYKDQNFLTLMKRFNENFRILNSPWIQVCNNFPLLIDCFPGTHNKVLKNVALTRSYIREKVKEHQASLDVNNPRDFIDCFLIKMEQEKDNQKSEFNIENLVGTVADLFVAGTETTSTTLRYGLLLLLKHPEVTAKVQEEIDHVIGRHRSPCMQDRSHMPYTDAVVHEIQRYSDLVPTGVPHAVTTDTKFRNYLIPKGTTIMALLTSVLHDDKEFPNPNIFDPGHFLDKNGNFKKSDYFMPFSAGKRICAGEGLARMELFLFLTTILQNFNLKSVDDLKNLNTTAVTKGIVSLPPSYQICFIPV

[2] = Volume of distribution at steady state in C57 mouse at 1 mg/kg,iv administration; format: ADME, organism-based; conditions: in vivo, read-out: Vdss
Enterococcus faecalis [3] = assay: Antibacterial activity against vancomycin-resistant Enterococcus faecalis assessed as inhibition of bacterial growth; format: functional
[4] = Bioavailability in C57 mouse at 1 mg/kg,iv administration; format: ADME, organism-based; conditions: in vivo
Salmonella typhimurium = assay: Antibacterial activity against Salmonella typhimurium assessed as inhibition of bacterial growth; format: functional, Salmonella enterica subsp. enterica serovar Typhimurium
Klebsiella pneumoniae = assay: Antibacterial activity against Klebsiella pneumoniae assessed as inhibition of bacterial growth; format: functional
[5] = Plasma protein binding in human; format: ADME, cell-free; conditions: read-out: PPB (converted)
[6] = AUC (0 to t) in C57 mouse at 1 mg/kg,iv administration; format: ADME, organism-based; conditions: in vivo
[7] = MRT in C57 mouse at 1 mg/kg,iv administration; format: ADME, organism-based; conditions: in vivo
Staphylococcus aureus [8] = assay: Antibacterial activity against methicillin resistant Staphylococcus aureus assessed as inhibition of bacterial growth; format: functional
[9] = C0 in C57 mouse at 1 mg/kg,iv administration; format: ADME, organism-based; conditions: in vivo
[10] = Half life in C57 mouse at 1 mg/kg,iv administration; format: ADME, organism-based; conditions: in vivo
[11] = Tmax in C57 mouse at 3 mg/kg,po administration; format: ADME, organism-based; conditions: in vivo
Streptococcus pneumoniae = assay: Antibacterial activity against Streptococcus pneumoniae assessed as inhibition of bacterial growth; format: functional
Haemophilus influenzae = assay: Antibacterial activity against Haemophilus influenzae assessed as inhibition of bacterial growth; format: functional
[12] = Aqueous solubility of compound; format: physicochemical
Escherichia coli [13] = assay: Antibacterial activity against Escherichia coli ATCC 25922 assessed as inhibition of bacterial growth; format: functional
Streptococcus pyogenes = assay: Antibacterial activity against Streptococcus pyogenes assessed as inhibition of bacterial growth; format: functional
Escherichia coli [14] = assay: Antibacterial activity against Escherichia coli assessed as inhibition of bacterial growth; format: functional
[15] = Cmax in C57 mouse at 3 mg/kg,po administration; format: ADME, organism-based; conditions: in vivo
Shigella flexneri = assay: Antibacterial activity against Shigella flexneri assessed as inhibition of bacterial growth; format: functional
Enterococcus faecalis [16] = assay: Antibacterial activity against Enterococcus faecalis assessed as inhibition of bacterial growth; format: functional
Salmonella enterica = assay: Antibacterial activity against Salmonella enterica assessed as inhibition of bacterial growth; format: functional
Enterococcus faecium = assay: Antibacterial activity against Enterococcus faecium assessed as inhibition of bacterial growth; format: functional
[17] = AUC (0 to t) in C57 mouse at 3 mg/kg,po administration; format: ADME, organism-based; conditions: in vivo
Acinetobacter baumannii = assay: Antibacterial activity against Acinetobacter baumannii assessed as inhibition of bacterial growth; format: functional
Staphylococcus aureus [18] = assay: Antibacterial activity against Staphylococcus aureus assessed as inhibition of bacterial growth; format: functional
[19] = Clearance in C57 mouse at 1 mg/kg,iv administration; format: ADME, organism-based; conditions: in vivo
Helicobacter pylori = assay: Antibacterial activity against Helicobacter pylori assessed as inhibition of bacterial growth; format: functional
Pseudomonas aeruginosa = assay: Antibacterial activity against Pseudomonas aeruginosa assessed as inhibition of bacterial growth; format: functional
[20] = Solubility of compound in PBS; format: physicochemical

SMILES: N#Cc1ccc2ccc(=O)n(CCN3CCC(NCc4ccc5c(c4)OCCO5)CC3)c2c1
- MIC (Staphylococcus aureus [1]): < 0.125 µg/mL
- inhibition (INH) (Cytochrome P450 1A2): Not Active
- pIC50 (Topoisomerase IV): 6.05
- inhibition (INH) (Cytochrome P450 3A4): Not Active
- inhibition (INH) (Cytochrome P450 2D6): Not Active
- pIC50 (DNA gyrase): 7.36
- inhibition (INH) (Cytochrome P450 2C19): Not Active
- inhibition (INH) (Cytochrome P450 2C8): Not Active

SMILES: N#Cc1ccc2ccc(=O)n(CCN3CCC(NCc4ccc5c(c4)NC(=O)CO5)CC3)c2c1
- inhibition (INH) (Cytochrome P450 1A2): Not Active
- pIC50 (Topoisomerase IV): 5.89
- inhibition (INH) (Cytochrome P450 3A4): Not Active
- inhibition (INH) (Cytochrome P450 2D6): Not Active
- pIC50 (DNA gyrase): 8.47
- inhibition (INH) (Cytochrome P450 2C19): Not Active
- inhibition (INH) (Cytochrome P450 2C8): Not Active

SMILES: N#Cc1ccc2ccc(=O)n(CCN3CCC(NCc4ccc5c(c4)NC(=O)CS5)CC3)c2c1
- Vd [2]: 14 L/kg
- MIC (Staphylococcus aureus [1]): < 0.125 µg/mL
- inhibition (INH) (Cytochrome P450 1A2): Not Active
- MIC (Enterococcus faecalis [3]): 0.25 µg/mL (≈ 0.528 µM)
- MIC90 (Enterococcus faecalis [3]): 4 µg/mL (≈ 8.45 µM)
- bioavailability [4]: 18%
- MIC (Salmonella typhimurium): 2 µg/mL (≈ 4.22 µM)
- pIC50 (Topoisomerase IV): 6.52
- inhibition (INH) (Cytochrome P450 3A4): Not Active
- MIC90 (Klebsiella pneumoniae): 16 µg/mL (≈ 33.8 µM)
- fraction unbound [5]: 0.21
- inhibition (INH) (Cytochrome P450 2D6): Not Active
- AUC(0-t) [6]: 206 ng·h/mL
- MRT [7]: 3 h
- MIC (Staphylococcus aureus [8]): 0.03 µg/mL (≈ 0.0633 µM)
- MIC90 (Staphylococcus aureus [8]): 0.125 µg/mL (≈ 0.264 µM)
- C0 [9]: 1210 ng/mL
- half-life [10]: 2.5 h
- pIC50 (DNA gyrase): 8.49
- Tmax [11]: 3 h
- MIC (Streptococcus pneumoniae): 0.125 µg/mL (≈ 0.264 µM)
- MIC90 (Streptococcus pneumoniae): 1 µg/mL (≈ 2.11 µM)
- inhibition (INH) (Cytochrome P450 2C19): Not Active
- MIC (Haemophilus influenzae): 2 µg/mL (≈ 4.22 µM)
- solubility ([12]; aqueous medium, read-out: solubility): 719 µg/mL (≈ 1520 µM)
- MIC (Escherichia coli [13]): < 0.125 µg/mL
- MIC (Streptococcus pyogenes): 0.15 µg/mL (≈ 0.317 µM)
- MIC90 (Streptococcus pyogenes): 0.25 µg/mL (≈ 0.528 µM)
- MIC (Escherichia coli [14]): 0.125 µg/mL (≈ 0.264 µM)
- MIC90 (Escherichia coli [14]): 2 µg/mL (≈ 4.22 µM)
- Cmax [15]: 22 ng/mL
- MIC (Shigella flexneri): 0.25 µg/mL (≈ 0.528 µM)
- MIC (Enterococcus faecalis [16]): 0.5 µg/mL (≈ 1.06 µM)
- MIC90 (Enterococcus faecalis [16]): 0.5 µg/mL (≈ 1.06 µM)
- MIC (Salmonella enterica): 1 µg/mL (≈ 2.11 µM)
- MIC (Enterococcus faecium): 1 µg/mL (≈ 2.11 µM)
- MIC90 (Enterococcus faecium): 1 µg/mL (≈ 2.11 µM)
- AUC(0-t) [17]: 110 ng·h/mL
- inhibition (INH) (Cytochrome P450 2C8): Not Active
- MIC (Acinetobacter baumannii): 0.125 µg/mL (≈ 0.264 µM)
- MIC90 (Acinetobacter baumannii): 2 µg/mL (≈ 4.22 µM)
- MIC (Staphylococcus aureus [18]): 0.016 µg/mL (≈ 0.0338 µM)
- MIC90 (Staphylococcus aureus [18]): 0.125 µg/mL (≈ 0.264 µM)
- clearance [19]: 80 mL/min/kg
- MIC (Helicobacter pylori): < 0.06 µg/mL
- MIC (Pseudomonas aeruginosa): 0.125 µg/mL (≈ 0.264 µM)
- MIC90 (Pseudomonas aeruginosa): 8 µg/mL (≈ 16.9 µM)
- solubility ([20]; PBS, read-out: solubility): 611 µg/mL (≈ 1290 µM)

SMILES: O=c1ccc2ncc(=O)n3c2n1C[C@H]3CN1CCC(NCc2cc3c(cn2)OCCC3)CC1 [GEPOTIDACIN]
- Vd [2]: 5 L/kg
- MIC (Staphylococcus aureus [1]): 0.25 µg/mL (≈ 0.557 µM)
- bioavailability [4]: 24%
- fraction unbound [5]: 0.67
- AUC(0-t) [6]: 244 ng·h/mL
- MRT [7]: 1.4 h
- C0 [9]: 724 ng/mL
- half-life [10]: 1.7 h
- Tmax [11]: 2 h
- solubility ([12]; buffer): 580 µg/mL (≈ 1290 µM)
- MIC (Escherichia coli [13]): 0.5 µg/mL (≈ 1.11 µM)
- Cmax [15]: 90 ng/mL
- AUC(0-t) [17]: 176 ng·h/mL
- MIC90 (Acinetobacter baumannii): 64 µg/mL (≈ 143 µM)
- clearance [19]: 60 mL/min/kg
- MIC90 (Pseudomonas aeruginosa): 32 µg/mL (≈ 71.3 µM)
- solubility ([20]; buffer): 663 µg/mL (≈ 1480 µM)
